Source: patent publication US6503941B2, “Ferulic ester derivative, 3,9-diferulylcoumestrol and cosmetic product containing same” (Hanbul Cosmetics Co., Ltd., priority 2000, dated 2003)

Legend:
tyrosinase = assay: Tyrosinase inhibition effect (whitening activity); assay type: biochemical; settings: 0.1%(wt/wt) sample solution; tyrosine 0.2 mg/ml, tyrosinase 680 units/ml, 37° C.
Experimental: And whitening activity and anti-oxidant activity were measured by determining tyrosinase inhibition effect and using NBT method. 0.1% vitamin C, 0.1% vitamin E, kojic acid and albutin were used as sample. […] A solution for blank test was tyrosine 1 ml+phosphoric acid buffer 1 ml+distilled water 1 ml. The procedure of the test is as follows. [table] 1) A,B and C are mixed and maintained at 37° C. for 30 min. 2) D is added and maintained for just 30 min. 3) After 10 min±10 sec, they are took out and the reaction ends in a refrigerating condition by ice. 4) when comparing the absorbance the comparative samples, the absorbencies of comparative group are tested and then those of blank test group are test(at […]). Tyrosinase activity inhibition effect(%) us calculated in the following way and the result is shown as Table 2. Tyrosinase activity inhibition effect (%): [1−(E−B/C)]×100 (B: blank test group, C: control group, E: test group)

[1] = Anti-oxidant effect, activated oxygen removal by NBT method; assay type: biochemical; settings: 0.1%(wt/wt) sample solution; NBT absorbance at 560 nm; suppression ratio
Experimental: And whitening activity and anti-oxidant activity were measured by determining tyrosinase inhibition effect and using NBT method. 0.1% vitamin C, 0.1% vitamin E, kojic acid and albutin were used as sample. To determine anti-oxidant effect, activated oxygen produced from xanthine and xanthine oxidase were measured using NBT method and activated oxygen removal effect of the tested materials was determined. Activated oxygen was produced by xanthine and xanthine oxidase. The activated oxygen was determined by measuring the blue color produced from the reaction of the activated oxygen and Nitroblue tetrasolium (NBT) at 560 nm of wavelength. 6) Xanthines oxidase solution: xanthine oxidase(Boehringer) was diluted about 100 times so that its blank test absorbance within the range of 0.2-0.23. In other word, the purified water was diluted so that the absorbance change be A560=0.3/20 min. (1)1,2,3,4 and 5 are introduced into vial bottle and 0.1 ml of sample solution is added, which are maintained at 5° C. for 10 min. (2) It is added by 6 and stirred immediately, followed by 20 min of culture at 25° C. (3) After 7 is added, the reaction is stopped. Then, absorbance (St) at 560 nm is measured. (4) Blank test is carried out in the same way except distilled water is used instead of sample solution and absorbance (Bt) is measured. 5) Blank test for sample is carried out in the same way except distilled water is used instead of 6 and absorbance (Bo) is measured. The effect is calculated in the following way. Suppression ratio (%)=[1−(St−So)/(Bt−Bo)×100

[2] = test system: human-derived fibroblast(ATCC, Hs68); assay: Cell toxicity and activity, MTT; assay type: cell-based; settings: for Cell activity: at LD50
Experimental: Test cells of human-derived fibroblast(ATCC, Hs68) were cultivated in DMEM medium added by 10% FBS at 37° C. in the condition of 5%CO2, 100% humidity. 1×10^5 cells/ml of cells were seeded in 96 plate and incubated at 37° C. for 24 hr. Samples sterilized by 0.2 µm filter were added according to the fixed concentration and further incubated at 37° C. for 24 hr. Then, MTT regent was added and incubated at 37° C. for 4 hr, then the culture solution was removed. After, 1N NaOH isopropane solution was added and stirred for 20 min, the absorbance at 565 nm was measured. Then, the cell apoptosis concentration was determined by comparing the untreated cell (survival ratio: 100%).
Cell activity at LD50 was 20%, which was satisfactory level.

[3] = test system: collagen in the skin of hairless mice; assay: Collagen formation effect, skin tissue test for collagen proliferation promoting effect; assay type: in vivo; settings: 0.1%(wt/wt) 1,3-BG solution applied to body of hairless mice
Experimental: To confirm the collagen formation effect of the synthesized 3,9-diferulylcoumestrol, 10 female hairless mice of 8week age were prepared. From the 2 mice, skin was taken out and standard dye samples were prepared using the side and middle part of the skin for investigation the collagen proliferation level. The other 8 mice were divided into two for the applied group and the control group.
In the same test condition, the whole body except head and belly of the applied group and the control group and were applied by 3,9-diferulycoumestrol 0.1%(wt/wt) 1,3-BG solution and 1,3-BG solution, for 15 days and 30 days.
From the applied group and the control group respectively, 2 mice were selected and their skins were cut out, then dyed samples were obtained from the side and middle part of the skin. After 30 days, skin dyed samples were obtained in the same way. For each of the obtained 10 dyed skin samples of the control group and the applied group, collagen proliferation promoting effect were compared on the basis of the skin condition of &week age. […] From the result, it was experimentally confirmed that 3,9diferulylcoumestrol is excellent in collagen synthesis and collagen proliferation promotion(FIG. 2)

[4] = 24 hr, diluted in 1,3-butylenglycol

For `O=C1O[C@H]([C@@H](O)CO)C(O)=C1O` [Ascorbic acid], the “Tyrosinase inhibition effect (%)” value (tyrosinase) was 30%.

In the case of `OC[C@H]1O[C@@H](Oc2ccc(O)cc2)[C@H](O)[C@@H](O)[C@@H]1O` [Albutin], the “Tyrosinase inhibition effect (%)” value (tyrosinase) is reported as 40%.

With Tocopherol the “Anti-oxidant effect (%)” value [1] was 43%.

In the case of `O=c1oc2cc(O)ccc2c2oc3cc(O)ccc3c12` [Coumestrol], the “Anti-oxidant effect (%)” value [1] is reported as 28%, the “Evaluation (LD50)” value [2] is reported as “Safe” and the “Evaluation (cell activity)” value [2] is reported as “excellent”. The LD50 % concentration ([2]; 24 hr) was 0.0048%, the “LD50 mole concentration(mM)” value ([2]; 24 hr) was 0.078 mM and the Cell activity [2] was 20%.

In the case of `O=c1cc(CO)occ1O` [Kojic acid], the “Tyrosinase inhibition effect (%)” value (tyrosinase) is reported as 91%.

In the case of `COc1cc(C=CC(=O)Oc2ccc3c(c2)oc(=O)c2c4ccc(OC(=O)C=Cc5ccc(O)c(OC)c5)cc4oc32)ccc1O` [3,9-diferulylcoumestrol], the “Tyrosinase inhibition effect (%)” value (tyrosinase) is reported as 76%, the “collagen synthesis and proliferation in skin” value ([3]; after 2 weeks (15 days), vs control groups) is reported as “collagen synthesis and proliferation were found” and the “collagen proliferation in corium layer and tissue density” value ([3]; after 30 days) is reported as “collagen proliferation in corium layer was increased and the tissue density was raised”. The “Anti-oxidant effect (%)” value [1] was 42%, the “concentration range in which cell apoptosis did not show” value [2, 4] was no more than 78 µM and the “concentration range in which cell apoptosis did not show (%)” value [2, 4] was no more than 0.0048%. For the same compound, the Cell activity [2] was 20%.
